Patent US8501794B2, “Compounds as cannabinoid receptor ligands” (priority 2007, dated 2013)

Tests used:
rat CB2 [1] = biological target: T1, rat CB2 (Rattus norvegicus, UniProt Q9QZN9); test: rat CB2 radioligand binding assay ([3H]CP-55,940 competition); parameters: expressed in transfected cells; host or cells: HEK293
T1 sequence (Q9QZN9 1-360): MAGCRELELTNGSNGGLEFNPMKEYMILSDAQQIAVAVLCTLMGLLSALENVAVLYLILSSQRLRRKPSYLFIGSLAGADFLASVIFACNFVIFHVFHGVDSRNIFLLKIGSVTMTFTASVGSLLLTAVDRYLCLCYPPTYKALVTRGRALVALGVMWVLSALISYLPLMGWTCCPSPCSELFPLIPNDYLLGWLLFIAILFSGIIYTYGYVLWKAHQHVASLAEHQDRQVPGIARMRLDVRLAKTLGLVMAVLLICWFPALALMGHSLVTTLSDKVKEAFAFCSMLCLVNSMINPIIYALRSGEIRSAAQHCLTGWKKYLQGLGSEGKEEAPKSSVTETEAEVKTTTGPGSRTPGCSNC

rat CB2 [2] = biological target: T1, rat CB2; test: rat CB2 cyclase functional assay (HitHunter cAMP, HEK cells); assay type: cell-based; parameters: expressed in transfected cells; host or cells: HEK; conditions: forskolin 18 μM
human CB2 receptors = biological target: T2, human CB2 receptors (Homo sapiens, UniProt P34972); test: human CB2 radioligand binding assay ([3H]CP-55,940 competition)
T2 construct: expressed in transfected cells; host or cells: HEK293
T2 sequence (P34972 whole entry): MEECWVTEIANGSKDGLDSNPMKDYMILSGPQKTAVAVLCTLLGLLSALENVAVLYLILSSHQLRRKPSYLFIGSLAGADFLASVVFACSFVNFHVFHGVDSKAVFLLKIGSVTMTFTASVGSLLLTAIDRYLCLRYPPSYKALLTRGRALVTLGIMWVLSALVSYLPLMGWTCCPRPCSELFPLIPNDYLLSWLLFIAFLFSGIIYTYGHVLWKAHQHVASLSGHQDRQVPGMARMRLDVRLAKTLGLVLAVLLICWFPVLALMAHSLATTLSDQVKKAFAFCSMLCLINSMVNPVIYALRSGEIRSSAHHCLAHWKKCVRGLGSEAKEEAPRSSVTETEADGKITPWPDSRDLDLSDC

Row | Structure (SMILES) | Ki (rat CB2 [1]) | EC50 (rat CB2 [2]) | Ki (human CB2 receptors)
1 | CCCCc1cn(C(C)(C)C)s/c1=N\C(=O)[C@]1(C)CC[C@H](C(=O)O)C1(C)C [Example 173, (1S,3R)-3-({[(5Z)-4-butyl-2-tert-butylisothiazol-5(2H)-ylidene]amino}carbonyl)-2,2,3-trimethylcyclopentanecarboxylic acid] | 77 nM | 3.5 nM | 107 nM
2 | CCCCCc1cn(C(C)(C)C)s/c1=N\C(=O)c1cc(Cl)ccc1OC [Example 147, N-[(5Z)-2-tert-butyl-4-pentylisothiazol-5(2H)-ylidene]-5-chloro-2-methoxybenzamide] | 0.15 nM | 0.062 nM | 1.6 nM
3 | CCCCc1cn(C(C)(C)C)s/c1=N\C(=O)c1cc(C(F)F)ccc1OC [Example 65, N-[(5Z)-4-butyl-2-tert-butylisothiazol-5(2H)-ylidene]-5-(difluoromethyl)-2-methoxybenzamide] | 1.6 nM | 0.052 nM | 9.3 nM
4 | COc1ccc(Cl)cc1C(=O)/N=c1\sn(C(C)(C)C)cc1CCC#N [Example 19, N-[(5Z)-2-tert-butyl-4-(2-cyanoethyl)isothiazol-5(2H)-ylidene]-5-chloro-2-methoxybenzamide] | 7.1 nM | 0.57 nM | 44 nM
5 | CCCCc1cn(C(C)(C)CF)s/c1=N\C(=O)c1cc(Cl)ccc1OC [Example 154, N-[(5Z)-4-butyl-2-(2-fluoro-1,1-dimethylethyl)isothiazol-5(2H)-ylidene]-5-chloro-2-methoxybenzamide] | 0.32 nM | 0.065 nM | 5.7 nM
6 | CCCCc1cn(C(C)(C)C)s/c1=N\C(=NC#N)c1cc(C(F)(F)F)ccc1OC [Example 124, N-[(5Z)-4-butyl-2-tert-butylisothiazol-5(2H)-ylidene]-N′-cyano-2-methoxy-5-(trifluoromethyl)benzenecarboximidamide] | 2.3 nM | 0.027 nM | 3 nM
7 | CCCCc1cn(C(C)(C)C)s/c1=N\C(=O)C1C(C)(C)C1(C)C [Example 121, N-[(5Z)-4-butyl-2-tert-butylisothiazol-5(2H)-ylidene]-2,2,3,3-tetramethylcyclopropanecarboxamide] | 0.52 nM | 0.33 nM | 0.8 nM
8 | CCCCc1cn(C(C)(C)C)s/c1=N\C(=O)[C@H]1CC[C@@](C)(C(=O)OC)C1(C)C [Example 170, Methyl (1R,3S)-3-({[(5Z)-4-butyl-2-tert-butylisothiazol-5(2H)-ylidene]amino}carbonyl)-1,2,2-trimethylcyclopentanecarboxylate] | 1.7 nM | 0.043 nM | 1.4 nM
9 | CCCCc1cn(C(C)(C)C)s/c1=N\C(=O)c1cc(C)ccc1OC [Example 43, N-[(5Z)-4-butyl-2-tert-butylisothiazol-5(2H)-ylidene]-2-methoxy-5-methylbenzamide] | 2.6 nM | 0.23 nM | 18 nM
10 | CCCCc1cn(C(C)(C)C)s/c1=N\C(=O)[C@@]1(C)CC[C@@H](C(=O)NCC(F)(F)F)C1(C)C [Example 240, (1S,3R)—N^1-[(5Z)-4-butyl-2-tert-butylisothiazol-5(2H)-ylidene]-1,2,2-trimethyl-N^3-(2,2,2-trifluoroethyl)cyclopentane-1,3-dicarboxamide] | 156 nM | 2.5 nM | 100 nM
11 | CON=CCCc1cn(C(C)(C)C)s/c1=N\C(=O)c1cc(Cl)ccc1OC [Example 15, N-[(5Z)-2-tert-butyl-4-[3-(methoxyimino)propyl]isothiazol-5(2H)-ylidene]-5-chloro-2-methoxybenzamide] | 15 nM | 1.1 nM | 170 nM
12 | COc1ccc(Cl)cc1C(=O)/N=c1\sn(C(C)(C)C)cc1CCC(C)(C)C#N [Example 137, N-[(5Z)-2-tert-butyl-4-(3-cyano-3-methylbutyl)isothiazol-5(2H)-ylidene]-5-chloro-2-methoxybenzamide] | 2.6 nM | 2.2 nM | 7.5 nM
13 | COc1ccc(Cl)cc1C(=O)/N=c1\sn(C(C)(C)C)cc1CCC(C)(C)F [Example 87, N-[(5Z)-2-tert-butyl-4-(3-fluoro-3-methylbutyl)isothiazol-5(2H)-ylidene]-5-chloro-2-methoxybenzamide] | 0.74 nM | 0.15 nM | 12 nM
14 | COc1ccc(Cl)cc1C(=O)/N=c1\sn(C(C)(C)C)cc1CCCC(C)(C)O [Example 80, N-[(5Z)-2-tert-butyl-4-(4-hydroxy-4-methylpentyl)isothiazol-5(2H)-ylidene]-5-chloro-2-methoxybenzamide] | 8.5 nM | 0.046 nM | 74 nM
15 | CCCCc1cn(C(C)(C)C)s/c1=N\C(=O)c1cc(Cl)ccc1OCCF [Example 139, N-[(5Z)-4-butyl-2-tert-butylisothiazol-5(2H)-ylidene]-5-chloro-2-(2-fluoroethoxy)benzamide] | 2 nM | 0.059 nM | 5.5 nM
16 | CCCCc1cn(C(C)(C)C)s/c1=N\S(=O)(=O)c1cccc2ccccc12 [Example 116, N-[(5Z)-4-butyl-2-tert-butylisothiazol-5(2H)-ylidene]naphthalene-1-sulfonamide] | 45 nM | 2.4 nM | 50 nM
17 | CCCCc1cn(C(C)(C)C)s/c1=N\C(=O)c1cc(/C(C)=N\O)ccc1OC [Example 68, N-[(5Z)-4-butyl-2-tert-butylisothiazol-5(2H)-ylidene]-5-[(1Z)-N-hydroxyethanimidoy1]-2-methoxybenzamide] | 8.3 nM | 0.022 nM | 59 nM
18 | CCCCc1cn(C(C)(C)C)s/c1=N\C(=O)[C@@H]1CC[C@](C)(C(=O)NC)C1(C)C [Example 209, (1S,3R)—N^3-[(5Z)-4-butyl-2-tert-butylisothiazol-5(2H)-ylidene]-N^1,1,2,2-tetramethylcyclopentane-1,3-dicarboxamide] | 7.3 nM | 0.44 nM | 12 nM
19 | C=CCc1cn(C(C)(C)C)s/c1=N\C(=O)c1cc(Cl)ccc1OC [Example 6, N-[(5Z)-4-allyl-2-tert-butylisothiazol-5(2H)-ylidene]-5-chloro-2-methoxybenzamide] | 16 nM | 2.4 nM | 210 nM
20 | CCCCc1cn(C(C)(C)C)s/c1=N\C(=O)[C@]1(C)CC[C@H](C(=O)OC)C1(C)C [Example 177, Methyl (1S,3R)-3-({[(5Z)-4-butyl-2-tert-butylisothiazol-5(2H)-ylidene]amino}carbonyl)-2,2,3-trimethylcyclopentanecarboxylate] | 0.1 nM | 0.15 nM | 0.16 nM
21 | COc1ccc(Cl)cc1C(=O)/N=c1\sn(C(C)(C)C)cc1CC1OCCO1 [Example 22, N-[(5Z)-2-tert-butyl-4-(1,3-dioxolan-2-ylmethyl)isothiazol-5(2H)-ylidene]-5-chloro-2-methoxybenzamide] | 6.2 nM | 0.24 nM | 67 nM
22 | CCCCc1cn(C(C)(C)C)s/c1=N\C(=O)[C@@]1(C)CC[C@@H](C(=O)O)C1(C)C [Example 174, (1R,3S)-3-({[(5Z)-4-butyl-2-tert-butylisothiazol-5(2H)-ylidene]amino}carbonyl)-2,2,3-trimethylcyclopentanecarboxylic acid] | 33 nM | 3.4 nM | 62 nM
23 | CCCCc1cn(C(C)(C)C)s/c1=N\C(=O)c1cc(C(F)(F)F)ccc1OC[C@@H]1COC(=O)N1 [Example 195, N-[(5Z)-4-butyl-2-tert-butylisothiazol-5(2H)-ylidene]-2-{[(4R)-2-oxo-1,3-oxazolidin-4-yl]methoxy}-5-(trifluoromethyl)benzamide] | 7.6 nM | 1.4 nM | 16 nM
24 | CCCCc1cn(C(C)(C)C)s/c1=N\S(=O)(=O)C1CCCCC1 [Example 118, N-[(5Z)-4-butyl-2-tert-butylisothiazol-5(2H)-ylidene]cyclohexanesulfonamide] | 119 nM | 5.1 nM | 43 nM
25 | COc1ccc(Cl)cc1C(=O)/N=c1\sn(C(C)(C)C)cc1CCCC(C)(C)F [Example 83, N-[(5Z)-2-tert-butyl-4-(4-fluoro-4-methylpentyl)isothiazol-5(2H)-ylidene]-5-chloro-2-methoxybenzamide] | 0.79 nM | 0.073 nM | 12 nM
26 | CCCCc1cn(C(C)(C)C)s/c1=N\C(=O)c1cc(Cl)ccc1OCC(N)=O [Example 140, 2-(2-amino-2-oxoethoxy)-N-[(5Z)-4-butyl-2-tert-butylisothiazol-5(2H)-ylidene]-5-chlorobenzamide] | 3.9 nM | 0.15 nM | 11 nM
27 | COc1ccc(Cl)cc1C(=O)/N=c1\sn(C(C)(C)C)cc1CCC(C)=O [Example 84, N-[(5Z)-2-tert-butyl-4-(3-oxobutyl)isothiazol-5(2H)-ylidene]-5-chloro-2-methoxybenzamide] | 2.7 nM | 0.88 nM | 42 nM
28 | COc1ccc(Cl)cc1C(=O)/N=c1\sn(C(C)(C)C)cc1C1CCOCC1 [Example 39, N-[(5Z)-2-tert-butyl-4-tetrahydro-2H-pyran-4-ylisothiazol-5(2H)-ylidene]-5-chloro-2-methoxybenzamide] | 26 nM | 1.6 nM | 99 nM
29 | COc1ccc(Cl)cc1C(=O)/N=c1\sn(C(C)(C)C)cc1CCCC#N [Example 30, N-[(5Z)-2-tert-butyl-4-(3-cyanopropyl)isothiazol-5(2H)-ylidene]-5-chloro-2-methoxybenzamide] | 2.6 nM | 0.2 nM | 17 nM
